Assay results from patent publication US9580416B2, “Inhibitors of Bruton's tyrosine kinase” (PHARMACYCLICS LLC, priority 2014, dated 2017).

Legend:
Assay type in all cases: biochemical
Btk = Btk (Homo sapiens, UniProt Q06187); assay: Btk kinase activity, TR-FRET assay; details: read-out: Btk (IC50)
How it was run: (§1)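 Enzyme (Btk 0.5 nM; Lck 6 nM) reacted 1 h with inhibitor, ATP at Km and biotin-peptide substrate in pH 7.4 buffer, 10% DMSO. Phosphopeptide detected by Eu-p-Tyr100 antibody plus streptavidin-APC (665/615 nm). IC50 calculated from fitted Ki(app) via ATP/Km correction plus half total enzyme.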

Lck = Lck (Homo sapiens, UniProt P06239); assay: Lck kinase activity, TR-FRET assay; details: read-out: LCK (IC50)
Sequence of Lck (P06239 whole entry, species assumed): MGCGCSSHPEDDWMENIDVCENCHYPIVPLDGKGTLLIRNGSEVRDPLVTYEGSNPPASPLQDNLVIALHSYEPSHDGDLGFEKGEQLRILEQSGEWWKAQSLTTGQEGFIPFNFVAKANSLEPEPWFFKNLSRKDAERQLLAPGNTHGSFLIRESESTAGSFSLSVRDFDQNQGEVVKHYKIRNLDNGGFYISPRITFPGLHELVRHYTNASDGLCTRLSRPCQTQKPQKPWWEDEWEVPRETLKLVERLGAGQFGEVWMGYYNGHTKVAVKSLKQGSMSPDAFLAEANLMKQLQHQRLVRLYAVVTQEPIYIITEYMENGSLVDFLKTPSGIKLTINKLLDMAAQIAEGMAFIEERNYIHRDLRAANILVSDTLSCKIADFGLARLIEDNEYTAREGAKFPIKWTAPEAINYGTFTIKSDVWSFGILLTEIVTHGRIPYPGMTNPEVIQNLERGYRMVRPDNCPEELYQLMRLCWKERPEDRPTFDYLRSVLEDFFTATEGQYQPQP
How it was run: as §1

EGFR = EGFR (Homo sapiens, UniProt P00533); assay: Inhibition of a panel of kinases, in vitro HotSpot kinase assay: EGFR
Sequence of EGFR (P00533 25-1210): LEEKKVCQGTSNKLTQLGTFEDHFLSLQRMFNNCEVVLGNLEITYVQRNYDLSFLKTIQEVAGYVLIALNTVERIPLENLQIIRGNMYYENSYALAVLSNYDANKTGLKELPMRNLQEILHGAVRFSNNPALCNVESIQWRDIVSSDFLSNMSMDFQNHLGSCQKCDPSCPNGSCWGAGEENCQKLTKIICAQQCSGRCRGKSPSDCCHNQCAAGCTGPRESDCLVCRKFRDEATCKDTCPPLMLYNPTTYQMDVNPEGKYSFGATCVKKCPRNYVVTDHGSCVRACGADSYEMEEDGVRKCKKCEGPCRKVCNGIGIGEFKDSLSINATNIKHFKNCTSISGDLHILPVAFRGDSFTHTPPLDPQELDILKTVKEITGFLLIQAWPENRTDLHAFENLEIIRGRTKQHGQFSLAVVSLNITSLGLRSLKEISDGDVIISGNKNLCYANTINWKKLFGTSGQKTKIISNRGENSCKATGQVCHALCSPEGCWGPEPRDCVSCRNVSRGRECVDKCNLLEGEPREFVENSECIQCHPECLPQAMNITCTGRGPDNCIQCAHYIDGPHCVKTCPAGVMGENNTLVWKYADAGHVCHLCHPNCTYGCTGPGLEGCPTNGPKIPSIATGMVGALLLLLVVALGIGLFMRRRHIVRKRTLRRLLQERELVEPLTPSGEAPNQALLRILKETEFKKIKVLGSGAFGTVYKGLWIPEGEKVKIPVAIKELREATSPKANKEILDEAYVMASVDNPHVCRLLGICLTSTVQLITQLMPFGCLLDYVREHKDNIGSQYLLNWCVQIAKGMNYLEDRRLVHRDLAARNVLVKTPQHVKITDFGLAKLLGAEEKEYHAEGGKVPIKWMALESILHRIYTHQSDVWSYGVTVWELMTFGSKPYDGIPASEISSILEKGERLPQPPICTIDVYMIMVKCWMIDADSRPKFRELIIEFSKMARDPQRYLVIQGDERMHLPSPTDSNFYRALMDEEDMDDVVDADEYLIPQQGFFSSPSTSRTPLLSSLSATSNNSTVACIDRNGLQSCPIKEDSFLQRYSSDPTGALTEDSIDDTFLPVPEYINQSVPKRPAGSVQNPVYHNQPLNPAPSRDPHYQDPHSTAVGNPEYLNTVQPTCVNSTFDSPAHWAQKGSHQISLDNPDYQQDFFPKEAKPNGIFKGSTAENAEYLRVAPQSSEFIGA
Description: (§2) The degree of inhibition of a panel of kinases is determined using the in vitro HotSpot kinase assay (purified enzymes, ^33P-ATP, an appropriate substrate and 1 uM ATP).

JAK3 = molecular target: T1, JAK3 (Homo sapiens, UniProt P52333); assay: Inhibition of a panel of kinases, in vitro HotSpot kinase assay: JAK3
T1 sequence (P52333 1-1124): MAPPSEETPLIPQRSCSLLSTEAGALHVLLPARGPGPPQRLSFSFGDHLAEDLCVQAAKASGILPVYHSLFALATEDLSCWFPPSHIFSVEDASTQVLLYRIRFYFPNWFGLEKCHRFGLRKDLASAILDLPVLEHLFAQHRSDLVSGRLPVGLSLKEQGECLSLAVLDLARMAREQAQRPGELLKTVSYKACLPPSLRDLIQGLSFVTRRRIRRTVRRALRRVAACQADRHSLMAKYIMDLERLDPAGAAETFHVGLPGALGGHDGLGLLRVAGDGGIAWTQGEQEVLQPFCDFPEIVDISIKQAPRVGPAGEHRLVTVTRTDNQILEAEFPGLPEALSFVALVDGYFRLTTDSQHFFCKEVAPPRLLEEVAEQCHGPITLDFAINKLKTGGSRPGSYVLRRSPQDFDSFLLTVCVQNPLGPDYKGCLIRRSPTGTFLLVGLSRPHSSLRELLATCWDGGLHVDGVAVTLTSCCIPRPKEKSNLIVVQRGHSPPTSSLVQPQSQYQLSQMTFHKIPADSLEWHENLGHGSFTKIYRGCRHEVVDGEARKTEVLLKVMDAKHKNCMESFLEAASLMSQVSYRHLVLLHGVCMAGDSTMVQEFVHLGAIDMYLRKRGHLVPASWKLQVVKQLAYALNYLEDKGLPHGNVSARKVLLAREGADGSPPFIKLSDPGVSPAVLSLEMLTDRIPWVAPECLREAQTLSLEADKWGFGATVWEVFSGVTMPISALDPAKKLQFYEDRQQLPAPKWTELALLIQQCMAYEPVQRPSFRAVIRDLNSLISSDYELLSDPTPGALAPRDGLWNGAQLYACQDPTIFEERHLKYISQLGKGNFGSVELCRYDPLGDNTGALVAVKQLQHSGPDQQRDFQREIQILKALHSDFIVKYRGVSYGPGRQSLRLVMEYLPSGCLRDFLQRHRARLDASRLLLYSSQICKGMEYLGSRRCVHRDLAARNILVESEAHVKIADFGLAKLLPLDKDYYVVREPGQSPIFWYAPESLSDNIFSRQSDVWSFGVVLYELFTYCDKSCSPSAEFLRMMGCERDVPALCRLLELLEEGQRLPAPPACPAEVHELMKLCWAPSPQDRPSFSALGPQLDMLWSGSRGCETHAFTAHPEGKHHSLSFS
Description: as §2

Sequence of Btk (Q06187 whole entry): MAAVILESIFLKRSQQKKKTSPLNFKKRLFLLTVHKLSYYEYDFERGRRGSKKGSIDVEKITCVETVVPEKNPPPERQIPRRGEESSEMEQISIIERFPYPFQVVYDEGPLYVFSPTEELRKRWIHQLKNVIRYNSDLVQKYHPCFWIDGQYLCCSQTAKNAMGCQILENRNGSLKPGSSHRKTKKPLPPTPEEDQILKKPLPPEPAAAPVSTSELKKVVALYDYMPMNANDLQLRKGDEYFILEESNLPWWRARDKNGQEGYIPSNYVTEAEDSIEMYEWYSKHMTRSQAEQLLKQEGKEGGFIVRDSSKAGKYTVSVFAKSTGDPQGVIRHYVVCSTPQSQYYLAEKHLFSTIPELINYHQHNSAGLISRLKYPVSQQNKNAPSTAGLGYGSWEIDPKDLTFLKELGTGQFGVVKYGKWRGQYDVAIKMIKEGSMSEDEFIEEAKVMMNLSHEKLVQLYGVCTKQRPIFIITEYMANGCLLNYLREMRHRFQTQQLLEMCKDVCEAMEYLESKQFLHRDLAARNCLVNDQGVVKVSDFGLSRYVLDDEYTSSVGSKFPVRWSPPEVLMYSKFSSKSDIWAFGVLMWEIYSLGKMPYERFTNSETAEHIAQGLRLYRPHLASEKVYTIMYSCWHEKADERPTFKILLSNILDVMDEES

SMILES: Cc1ccnc(NC(=O)c2ccc(Oc3ccnc4[nH]nc(N[C@@H]5CCCN(C(=O)C6(C)CCN(C(=O)OC(C)(C)C)CC6)C5)c34)cc2)c1 [compound 103, tert-butyl 4-methyl-4-[(3R)-3-[(4-{4-[(4-methylpyridin-2-yl)carbamoyl]phenoxy}-1H-pyrazolo[3,4-b]pyridin-3-yl)amino]piperidine-1-carbonyl]piperidine-1-carboxylate]
- IC50 (Btk): < 100 nM
- IC50 (Lck): 1000 to 10000 nM
- IC50 (EGFR): > 10000 nM
- IC50 (JAK3): > 10000 nM

SMILES: CCC(=O)N1CCC[C@@H](Nc2n[nH]c3nccc(Oc4ccc(-c5nc6ccccc6s5)cc4)c23)C1 [compound 222, 1-[(3R)-3-({4-[4-(1,3-benzothiazol-2-yl)phenoxy]-1H-pyrazolo[3,4-b]pyridin-3-yl}amino)piperidin-1-yl]propan-1-one]
- IC50 (Btk): 100 to 1000 nM
- IC50 (Lck): 100 to 1000 nM
- IC50 (EGFR): > 10000 nM
- IC50 (JAK3): > 10000 nM

SMILES: Cc1ccnc(NC(=O)c2ccc(Oc3ccnc4[nH]nc(N[C@@H]5CCCN(C#N)C5)c34)cc2)c1 [compound 276, (R)-4-(3-(1-cyanopiperidin-3-ylamino)-1H-pyrazolo[3,4-b]pyridin-4-yloxy)-N-(4-methylpyridin-2-yl)benzamide]
- IC50 (Btk): < 100 nM
- IC50 (Lck): 100 to 1000 nM
- IC50 (EGFR): 1000 to 10000 nM
- IC50 (JAK3): > 10000 nM

SMILES: CC#CC(=O)N1CC[C@@H](Nc2n[nH]c3nccc(Oc4ccc(C(=O)Nc5ncc(C)s5)cc4)c23)C1 [compound 181]
- IC50 (Btk): < 100 nM
- IC50 (Lck): 1000 to 10000 nM
- IC50 (EGFR): 1000 to 10000 nM
- IC50 (JAK3): > 10000 nM

SMILES: Cc1ccnc(NC(=O)c2ccc(Oc3ccnc4[nH]nc(N[C@@H]5CCCN(C(=O)[C@@H]6CCCO6)C5)c34)cc2)c1 [compound 117, N-(4-methylpyridin-2-yl)-4-[(3-{[(3R)-1-[(2S)-oxolane-2-carbonyl]piperidin-3-yl]amino}-1H-pyrazolo[3,4-b]pyridin-4-yl)oxy]benzamide]
- IC50 (Btk): < 100 nM
- IC50 (Lck): > 10000 nM
- IC50 (EGFR): > 10000 nM
- IC50 (JAK3): 1000 to 10000 nM

SMILES: C=CC(=O)N1CCC[C@@H](Oc2n[nH]c3nccc(Nc4cccc(C(=O)Nc5ccc(C(C)C)c(C)c5)c4)c23)C1 [compound 132, N-[3-methyl-4-(propan-2-yl)phenyl]-3-[(3-{[(3R)-1-(prop-2-enoyl)piperidin-3-yl]oxy}-1H-pyrazolo[3,4-b]pyridin-4-yl)amino]benzamide]
- IC50 (Btk): < 100 nM
- IC50 (Lck): 1000 to 10000 nM
- IC50 (EGFR): < 100 nM
- IC50 (JAK3): < 100 nM

SMILES: O=C(Nc1cc(C(F)(F)F)ccn1)c1ccc(Oc2ccnc3[nH]nc(N[C@@H]4CCCN(C(=O)C5CC5)C4)c23)cc1 [compound 173]
- IC50 (Btk): < 100 nM
- IC50 (Lck): 100 to 1000 nM
- IC50 (EGFR): 1000 to 10000 nM
- IC50 (JAK3): > 10000 nM

SMILES: CN1CCC(C(=O)N2CCC[C@@H](Nc3n[nH]c4nccc(Oc5ccc(C(=O)Nc6cc(C(F)(F)F)ccn6)cc5)c34)C2)CC1 [compound 204, 4-[(3-{[(3R)-1-(1-methylpiperidine-4-carbonyl)piperidin-3-yl]amino}-1H-pyrazolo[3,4-b]pyridin-4-yl)oxy]-N-[4-(trifluoromethyl)pyridin-2-yl]benzamide]
- IC50 (Btk): < 100 nM
- IC50 (Lck): < 100 nM
- IC50 (EGFR): 1000 to 10000 nM
- IC50 (JAK3): > 10000 nM

SMILES: CCNC(=O)N1CCC[C@@H](Nc2n[nH]c3nccc(Oc4ccc(C(=O)Nc5ccccn5)cc4)c23)C1 [compound 229, (3R)-N-ethyl-3-[(4-{4-[(pyridin-2-yl)carbamoyl]phenoxy}-1H-pyrazolo[3,4-b]pyridin-3-yl)amino]piperidine-1-carboxamide]
- IC50 (Btk): < 100 nM
- IC50 (Lck): > 10000 nM
- IC50 (EGFR): 1000 to 10000 nM
- IC50 (JAK3): > 10000 nM

SMILES: CN(C)CCCC(=O)N[C@@H]1CCCN(c2n[nH]c3nccc(Oc4ccc(C(=O)Nc5cc(C(F)(F)F)ccn5)cc4)c23)C1 [compound 230, 4-({3-[(3R)-3-[4-(dimethylamino)butanamido]piperidin-1-yl]-1H-pyrazolo[3,4-b]pyridin-4-yl}oxy)-N-[4-(trifluoromethyl)pyridin-2-yl]benzamide]
- IC50 (Btk): 100 to 1000 nM
- IC50 (Lck): > 10000 nM
- IC50 (EGFR): > 10000 nM
- IC50 (JAK3): > 10000 nM

SMILES: Cc1cccc(NC(=O)c2ccc(Oc3ccnc4[nH]nc(N[C@@H]5CCCN(C(=O)C6(C)COC6)C5)c34)cc2)n1 [compound 113, 4-[(3-{[(3R)-1-(3-methyloxetane-3-carbonyl)piperidin-3-yl]amino}-1H-pyrazolo[3,4-b]pyridin-4-yl)oxy]-N-(6-methylpyridin-2-yl)benzamide]
- IC50 (Btk): 100 to 1000 nM
- IC50 (Lck): 1000 to 10000 nM
- IC50 (EGFR): > 10000 nM
- IC50 (JAK3): > 10000 nM

SMILES: C=CC(=O)N1CCCC(Nc2n[nH]c3nccc(Oc4ccc(-c5ccc(C(F)(F)F)cn5)cc4)c23)C1 (stereo in doubt) [compound 196, 1-[(3S)-3-[(4-{4-[5-(trifluoromethyl)pyridin-2-yl]phenoxy}-1H-pyrazolo[3,4-b]pyridin-3-yl)amino]piperidin-1-yl]prop-2-en-1-one]
- IC50 (Btk): 100 to 1000 nM
- IC50 (Lck): > 10000 nM
- IC50 (EGFR): 1000 to 10000 nM
- IC50 (JAK3): 100 to 1000 nM

SMILES: C=CC(=O)N1CCC[C@@H](Nc2n[nH]c3nccc(Oc4ccc(C(=O)Nc5nc6c(s5)CCN(C)C6)cc4)c23)C1 [compound 145]
- IC50 (Btk): < 100 nM
- IC50 (Lck): > 10000 nM
- IC50 (EGFR): > 10000 nM
- IC50 (JAK3): < 100 nM

SMILES: CC1(C(=O)N2CCC[C@@H](Nc3n[nH]c4nccc(Oc5ccc(C(=O)Nc6nc7ccccc7s6)cc5)c34)C2)COC1 [compound 226, N-(1,3-benzothiazol-2-yl)-4-[(3-{[(3R)-1-(3-methyloxetane-3-carbonyl)piperidin-3-yl]amino}-1H-pyrazolo[3,4-b]pyridin-4-yl)oxy]benzamide]
- IC50 (Btk): < 100 nM
- IC50 (Lck): 100 to 1000 nM
- IC50 (EGFR): > 10000 nM
- IC50 (JAK3): 1000 to 10000 nM

SMILES: CC1(C(=O)N2CCC[C@@H](Nc3n[nH]c4nccc(Oc5ccc(C(=O)Nc6ccccn6)cc5)c34)C2)CCOCC1 [compound 112, 4-[(3-{[(3R)-1-(4-methyloxane-4-carbonyl)piperidin-3-yl]amino}-1H-pyrazolo[3,4-b]pyridin-4-yl)oxy]N-(pyridin-2-yl)benzamide]
- IC50 (Btk): < 100 nM
- IC50 (Lck): 1000 to 10000 nM
- IC50 (EGFR): > 10000 nM
- IC50 (JAK3): > 10000 nM

SMILES: CC#CC(=O)N1CCC[C@@H](Nc2n[nH]c3nccc(Oc4ccc(C(=O)Nc5ncc(C)s5)cc4)c23)C1 [compound 141]
- IC50 (Btk): < 100 nM
- IC50 (Lck): 1000 to 10000 nM
- IC50 (EGFR): > 10000 nM
- IC50 (JAK3): 1000 to 10000 nM

SMILES: Cc1ccnc(NC(=O)c2ccc(Oc3ccnc4[nH]nc(N[C@@H]5CCCN(C(=O)C(C)(C)C#N)C5)c34)cc2)c1 [compound 102, 4-[(3-{[(3R)-1-(2-cyano-2,2-dimethylacetyl)piperidin-3-yl]amino}-1H-pyrazolo[3,4-b]pyridin-4-yl)oxy]-N-(4-methylpyridin-2-yl)benzamide]
- IC50 (Btk): < 100 nM
- IC50 (Lck): 100 to 1000 nM
- IC50 (EGFR): > 10000 nM
- IC50 (JAK3): > 10000 nM

SMILES: Cc1cc(NC(=O)c2ccc(Oc3ccnc4[nH]nc(N[C@@H]5CCCN(C(=O)/C=C/CN(C)C6CC6)C5)c34)cc2)nn1C [compound 165]
- IC50 (Btk): 100 to 1000 nM
- IC50 (Lck): > 10000 nM
- IC50 (EGFR): > 10000 nM
- IC50 (JAK3): > 10000 nM

SMILES: CC(=O)N1CC[C@@H](Nc2n[nH]c3nccc(Oc4cccc(C(=O)Nc5ccc(C(C)C)c(C)c5)c4)c23)C1 [compound 123, 3-[(3-{[(3R)-1-acetylpyrrolidin-3-yl]amino}-1H-pyrazolo[3,4-b]pyridin-4-yl)oxy]-N-[3-methyl-4-(propan-2-yl)phenyl]benzamide]
- IC50 (Btk): 100 to 1000 nM
- IC50 (Lck): < 100 nM
- IC50 (EGFR): 1000 to 10000 nM
- IC50 (JAK3): 1000 to 10000 nM

SMILES: Cc1ccnc(NC(=O)c2ccc(Oc3ccnc4[nH]nc(NC5CCN(C#N)CC5)c34)cc2)c1 [compound 278, 4-(3-(1-cyanopiperidin-4-ylamino)-1H-pyrazolo[3,4-b]pyridin-4-yloxy)-N-(4-methylpyridin-2-yl)benzamide]
- IC50 (Btk): < 100 nM
- IC50 (Lck): 100 to 1000 nM
- IC50 (EGFR): 1000 to 10000 nM
- IC50 (JAK3): > 10000 nM

SMILES: C=CC(=O)N1CCC[C@@H](Nc2n[nH]c3nccc(Oc4ccc(Oc5ccccc5)c(C)c4)c23)C1 [compound 153]
- IC50 (Btk): < 100 nM
- IC50 (Lck): 100 to 1000 nM
- IC50 (EGFR): < 100 nM
- IC50 (JAK3): 100 to 1000 nM
